Where two headings read alike, the source gives them in different places.
What was measured:
[1] = test system: early-treated HIV-1-infected individuals; details: in vivo
CD4+ T cells = details: median; 3 days after each RMD administration; not fully recovered by day 7 after RMD3
[2] = 5 mg/m^2 BSA i.v. over 4 hours; for RMD-PK AUC1, Med: plasma, AUC0-inf non-compartmental from simulated individual concentrations
[3] = test system: histone H3 acetylation in lymphocytes; type: in vivo, human; details: peripheral lymphocytes
Method: The levels of histone H3 acetylation in lymphocytes (based on FSC/SCC scatter) were determined by flow cytometry from samples taken before (0 h) and at the end of each RMD infusion (RMD1−2−3) (4 h), at 8 and 24 h (+1 day) RMD1, and at 72 h (+3 days) and 7 days after (RMD1−2−3). Cryopreserverd PBMC were thawed 4 h before use, and 500,000 cells were blocked with 600 ul of PBS/10% FBS for 20 min and stained with polyclonal rabbit anti-acetyl histoneH3 (10 μg/ml, MerckMillipore #06–599) or normal rabbit serum (control stain, LifeTechnologies #10510) for 30 min. Cells were washed and subsequently incubated with donkey anti-rabbit IgG(H+L) (6 μg/mL, LifeTechnologies #A21206) for 30 min at room temperature in the dark. Cells were washed, re-suspended in 150 μl PBS and analyzed. ~50,000 events were acquired per sample. The median fluorescence intensity (MFI) for each sample was calculated by substracting the background MFI (isotype control stain) from the anti-acetyl histoneH3 stain.

HIV-1 [4] = type: in vivo, human; details: ultrasensitive single copy assay, during RMD1−2−3
Method: To evaluate HIV-1 RNA below 20 copies/ml, 4–8 ml of plasma samples taken before (0 h) and at the end of each RMD infusion (4 h), at 8 and 24 h (+1 day) after RMD1, and 72 h (+3 days) and 7 days after RMD1−2−3 were ultracentrifugated at 170,000 g at 4°C for 30 min and viral RNA was extracted automatically using the m2000sp Abbot device. HIV-1 RNA copies were quantified using the Abbott Real-Time HIV-1 assay (Abbott Molecular Inc.) and in-house calibration curve sets as described ([38]). The limit of detection (2 HIV-1 RNA copies/mL) was calculated relative to the plasma volume.

HIV-1 [5] = type: in vivo, human
CD3+ T cells = type: in vivo, human; details: over the three RMD doses; increases 3 days after each dose, maintained up to 1 week after RMD3
Method: Activation of T cells was determined based upon HLA-DR expression on CD3^+ T cells. Cryopreserved PBMC were thawed, and 1,000,000 cells were stained with CD3 APC-Cy7, CD4 FITC, CD8 BV510 and HLA-DR PECy7 (BioLegend #344818, 300538, 301048, and 307616, respectively). Cells were collected on an LSRII instrument (BD), and data analyzed according to the gating criteria shown in Supplementary Figure 1 using FlowJo 10 software.

C/C=C1\NC(=O)[C@H]2CSSCC/C=C/[C@H](CC(=O)N[C@H](C(C)C)C(=O)N2)OC(=O)[C@H](C(C)C)NC1=O [RMD, Romidepsin]
AE recorded after RMD1−2−3 [1]: 204 AE | Abdominal distension, Grade 1 n [1]: 4 n | Abdominal distension, Grade 2 n [1]: 1 n | Abdominal distension, Grade 3 n [1]: 0 n | Abdominal distension, Grade 4 n [1]: 0 n | Abdominal distension, Total n (%) [1]: 5 (33) n (%) | Abdominal pain, Grade 1 n [1]: 5 n | Abdominal pain, Grade 2 n [1]: 2 n | Abdominal pain, Grade 3 n [1]: 0 n | Abdominal pain, Grade 4 n [1]: 0 n | Abdominal pain, Total n (%) [1]: 7 (47) n (%) | Anorexia, Grade 1 n [1]: 8 n | Anorexia, Grade 2 n [1]: 1 n | Anorexia, Grade 3 n [1]: 0 n | Anorexia, Grade 4 n [1]: 0 n | Anorexia, Total n (%) [1]: 9 (60) n (%) | Anxiety, Grade 1 n [1]: 0 n | Anxiety, Grade 2 n [1]: 1 n | Anxiety, Grade 3 n [1]: 0 n | Anxiety, Grade 4 n [1]: 0 n | Anxiety, Total n (%) [1]: 1 (7) n (%) | Constipation, Grade 1 n [1]: 4 n | Constipation, Grade 2 n [1]: 2 n | Constipation, Grade 3 n [1]: 0 n | Constipation, Grade 4 n [1]: 0 n | Constipation, Total n (%) [1]: 6 (40) n (%) | Dry mouth, Grade 1 n [1]: 1 n | Dry mouth, Grade 2 n [1]: 0 n | Dry mouth, Grade 3 n [1]: 0 n | Dry mouth, Grade 4 n [1]: 0 n | Dry mouth, Total n (%) [1]: 1 (7) n (%) | ECG: ST-elevation, Grade 1 n [1]: 1 n | ECG: ST-elevation, Grade 2 n [1]: 0 n | ECG: ST-elevation, Grade 3 n [1]: 0 n | ECG: ST-elevation, Grade 4 n [1]: 0 n | ECG: ST-elevation, Total n (%) [1]: 1 (7) n (%) | Fatigue, Grade 1 n [1]: 9 n | Fatigue, Grade 2 n [1]: 5 n | Fatigue, Grade 3 n [1]: 0 n | Fatigue, Grade 4 n [1]: 0 n | Fatigue, Total n (%) [1]: 14 (93) n (%) | Grade 1-2 laboratory abnormalities related to RMD [1]: 22 n | Grade 4 creatinine kinase elevation [1]: one | Headache, Grade 1 n [1]: 9 n | Headache, Grade 2 n [1]: 5 n | Headache, Grade 3 n [1]: 0 n | Headache, Grade 4 n [1]: 0 n | Headache, Total n (%) [1]: 14 (93) n (%) | Hypophosphatemia [1]: 8 events | Hypotension, Grade 1 n [1]: 0 n | Hypotension, Grade 2 n [1]: 1 n | Hypotension, Grade 3 n [1]: 0 n | Hypotension, Grade 4 n [1]: 0 n | Hypotension, Total n (%) [1]: 1 (7) n (%) | Individuals who vomited the days of RMD administration, percent [1]: 27% | Libido decrease, Grade 1 n [1]: 0 n | Libido decrease, Grade 2 n [1]: 1 n | Libido decrease, Grade 3 n [1]: 0 n | Libido decrease, Grade 4 n [1]: 0 n | Libido decrease, Total n (%) [1]: 1 (7) n (%) | Metallic taste, Grade 1 n [1]: 5 n | Metallic taste, Grade 2 n [1]: 1 n | Metallic taste, Grade 3 n [1]: 0 n | Metallic taste, Grade 4 n [1]: 0 n | Metallic taste, Total n (%) [1]: 6 (40) n (%) | Myalgia, Grade 1 n [1]: 1 n | Myalgia, Grade 2 n [1]: 1 n | Myalgia, Grade 3 n [1]: 0 n | Myalgia, Grade 4 n [1]: 0 n | Myalgia, Total n (%) [1]: 2 (13) n (%) | Nausea, Grade 1 n [1]: 4 n | Nausea, Grade 2 n [1]: 7 n | Nausea, Grade 3 n [1]: 0 n | Nausea, Grade 4 n [1]: 0 n | Nausea, Total n (%) [1]: 11 (73) n (%) | Palpitations, Grade 1 n [1]: 3 n | Palpitations, Grade 2 n [1]: 0 n | Palpitations, Grade 3 n [1]: 0 n | Palpitations, Grade 4 n [1]: 0 n | Palpitations, Total n (%) [1]: 3 (20) n (%) | Participants with grade 4 AE, sepsis by Shigella sonnei (SAE) [1]: One | Rash, Grade 1 n [1]: 0 n | Rash, Grade 2 n [1]: 2 n | Rash, Grade 3 n [1]: 0 n | Rash, Grade 4 n [1]: 0 n | Rash, Total n (%) [1]: 2 (13) n (%) | Sepsis by Shigella sonnei (SAE), Grade 1 n [1]: 0 n | Sepsis by Shigella sonnei (SAE), Grade 2 n [1]: 0 n | Sepsis by Shigella sonnei (SAE), Grade 3 n [1]: 0 n | Sepsis by Shigella sonnei (SAE), Grade 4 n [1]: 1 n | Sepsis by Shigella sonnei (SAE), Total n (%) [1]: 1 (7) n (%) | Somnolence, Grade 1 n [1]: 1 n | Somnolence, Grade 2 n [1]: 0 n | Somnolence, Grade 3 n [1]: 0 n | Somnolence, Grade 4 n [1]: 0 n | Somnolence, Total n (%) [1]: 1 (7) n (%) | Sweating, Grade 1 n [1]: 2 n | Sweating, Grade 2 n [1]: 2 n | Sweating, Grade 3 n [1]: 0 n | Sweating, Grade 4 n [1]: 0 n | Sweating, Total n (%) [1]: 4 (27) n (%) | Thrombocytopenia [1]: 5 events | Tolerability at the regimen and dose administered [1]: well-tolerated | Vomits, Grade 1 n [1]: 4 n | Vomits, Grade 2 n [1]: 0 n | Vomits, Grade 3 n [1]: 0 n | Vomits, Grade 4 n [1]: 0 n | Vomits, Total n (%) [1]: 4 (27) n (%) | Transient decrease of CD4+ T-cell counts (CD4+ T cells): 248 cells/mm^3 | RMD-PK AUC1, Med ([2]; MAP - Controllers (n=3)): 473.5 | RMD-PK AUC1, Med ([2]; MAP - Non Controllers (n=10)): 392.9 | RMD concentrations in plasma by 24 h after dosing ([2]; individual profiles simulated with population PK model, LC-MS/MS): nearly undetectable levels | Time of return of acH3 to baseline values after each dose ([3]; flow cytometry): 3 days | Histone H3 acetylation (acH3) during each RMD infusion ([3]; flow cytometry MFI, remained high during 4 h): increased rapidly | Kinetics of plasma HIV-1 RNA levels (HIV-1 [4]): did not follow a clear pattern | Individuals with increases in CA HIV-1 RNA above 2-fold (HIV-1 [5]; at any time point after RMD administrations): 80% | HIV-1 transcription (cell-associated HIV-1 RNA) (HIV-1 [5]; peripheral CD4+ T cells, normalized to TBP, relative to pre-RMD1, more pronounced after RMD2 and RMD3): transiently increased | Median increase of viral expression (CA HIV-1 RNA) at the end of each RMD infusion (HIV-1 [5]; without correction by housekeeping gene, relative to before RMD1, normalization beyond 4 hours): higher than 2.5 fold | T-cell activation (proportion of CD3+/HLA-DR+ cells) (CD3+ T cells): increased in a progressive manner

Reference: article PMC7218169 (Frontiers in Immunology, 2020)
